In test [1] the test system is transient cerebral ischemia in mongolian gerbils. Description: Protective effect of cerebralischemia: survival ratio after bilateral common carotid occlusion and reperfusion in gerbils. The class given is in vivo, mongolian gerbil. The conditions noted are these: Meriones unguiculatus, ip; for responders at 5 mg/kg: read-out: Survival ratio. How it is done: Test Example 1 Protective effect of cerebralischemia
Male mongolian gerbils (Seiwa/8-10 wks) (n=8-10) were used. Bilateral common carotid arteries were occluded after the incision of the center of the neck under ether anesthesia. Global cerebral ischemia was induced by the occlusion of bilateral common carotid arteries (15 minutes), and after that these arteries were reperfused. Test sample was administered intraperiatonelly 30 minutes before occlusion and 90 minutes after reperfusion. In the control group, vehicle (distilled water, saline or 5% gum arabic) was administered in the same fashion. Survival ratio was estimated at 8 hr after reperfusion (Table 2).

In test [2] the test system is brain edema in male wistar rats. Description: Anti-brain edema effect (middle cerebral arterial occlusion and reperfusion model). The class given is in vivo, rat (wistar). Particulars: 10 mg/kg(ip) × 7, rat, 3rd day after reperfusion, * p < 0.05. An excerpt: Test Example 2 Anti-brain edema effect (middle cerebral arterial occlusion and reperfusion model)
Male wistar rats (Jcl:9wks) were anesthetized with inhalation of halothane (2-bromo-2-chloro-1,1,1-trifluoroethane). After the incision of neck, bilateral common carotid arteries were […] an embolized needle (diameter 0.3 mm, length 26 mm nylon thread) was inserted into the left internal carotid artery through external carotid artery and, simultaneously, the bilateral common carotid arteries were occluded by the Sugita's aneurysm clips. The embolized needle and the clips were removed out 30 minutes after occlusion. Test sample was administered immediately and 5 hr after reperfusion on the operated day, twice a day on the 1st and 2nd day, and 1 hr before removing the brain on the 3rd day (total 7 times), intraperiatonelly. In the control group, vehicle (distilled water, saline or 5% gum arabic) was administered in the same fasion. Brain edema on the 3rd day after reperfusion was estimated from the content of water, potassium and sodium in cerebral cortex and striatum. Water content was calculated from the ratio of dried brain weight and wet brain weight [(1-dried weight/wet weight)×100%]. The contents of pottasium and sodium were measured using the solution extracted from dried brain tissue with 14% nitric acid by the method of the framephotometer (Table 3).

The mark [3] stands for this setting: 5 mg/kg, 30 min before occlusion and 90 min after reperfusion, estimated 8 hr after reperfusion, control 0.
[4] abbreviates: 30 min before occlusion and 90 min after reperfusion, estimated 8 hr after reperfusion, control 0.

SMILES strings stand for the structures. Counter-ions that a name gives are not always drawn. Like-named read-outs stand apart in the source and are kept apart here.

As for `CN(C)c1cccc(NC(=O)NCc2c(-c3ccccc3)c3cc(Cl)ccc3c(=O)n2C)c1` [14 (HCl), N-[(6-Chloro-1,2-dihydro-2-methyl-1-oxo-4-phenylisoquinolin-3-yl)methyl]-N'-(3-N,N-dimethylaminophenyl)urea hydrochloride], in test [1] (setting [3]), the responders at 5 mg/kg was 63%.

Consider `CN(C)Cc1cccc(NC(=O)NCc2c(-c3ccccc3)c3cc(Cl)ccc3c(=O)n2C)c1` [15 (HCl), N-[(6-Chloro-1,2-dihydro-2-methyl-1-oxo-4-phenylisoquinolin-3-yl)methyl]-N'-(3-N,N-dimethylaminomethylphenyl)urea hydrochloride], for which the responders at 0.3 mg/kg in test [1] (setting [4]) was 80%. The responders at 5 mg/kg in test [1] (setting [3]) is 88%. The “H2O (water content of brain)” value in test [2] (control 81.27 (Example 1), 80.94 (Example 15(HCl))) turned out to be 80.24 ± 0.23%. The “Na (sodium content of brain)” value in test [2] (control 405 (Example 1), 371 (Example 15(HCl))) amounted to 325 ± 17 mEq/kg. Further, the “K (potassium content of brain)” value in test [2] (control 430 (Example 1), 440 (Example 15(HCl))) stood at 466 ± 9 mEq/kg.

For `Cn1c(CNC(=O)Nc2cccc(C(=O)O)c2)c(-c2ccccc2)c2cc(Cl)ccc2c1=O` [17 (Na), N-(3-Carboxyphenyl)-N'-[(6-chloro-1,2-dihydro-2-methyl-1-oxo-4-phenylisoquinolin-3-yl)methyl]urea sodium salt], the responders at 5 mg/kg in test [1] (8 h) worked out at 67%.

For `CC(C)Oc1cccc(N(CC(=O)O)C(=O)NCc2c(-c3ccccc3)c3cc(Cl)ccc3c(=O)n2C)c1` [22 (Ma), N-Carboxymethyl-N'-[(6-chloro-1,2-dihydro-2-methyl-1-oxo-4-phenylisoquinolin-3-yl)methyl]-N-(3isopropoxyphenyl)urea sodium salt], in test [1] (8 h), the responders at 5 mg/kg is 63%.

As for `Cn1c(CNC(=O)Cc2cccc(C(=O)O)c2)c(-c2ccccc2)c2cc(Cl)ccc2c1=O` [28 (Na), N-(6-Chloro-1,2-dihydro-2-methyl-1-oxo-4-phenylisoquinolin-3-yl)methyl-α-(3-carboxyphenyl)acetamide sodium salt], the responders at 5 mg/kg in test [1] (8 h) came out at 75%.

With `CCN(CC)Cc1cccc(NC(=O)NCc2c(-c3ccccc3)c3cc(Cl)ccc3c(=O)n2C)c1` [39 (HCl), N-[(6-Chloro-1,2-dihydro-2-methyl-1-oxo-4-phenylisoquinolin-3-yl)methyl]-N'-[3-(diethylaminomethyl)phenyl]urea], the responders at 5 mg/kg in test [1] (setting [3]) is 63%.

In the case of `Cn1c(CNC(=O)Nc2cccc(CN3CCCC3)c2)c(-c2ccccc2)c2cc(Cl)ccc2c1=O` [40 (HCl), N-[(6-Chloro-1,2-dihydro-2-methyl-1-oxo-4-phenylisoquinolin-3-yl)methyl]-N'-[3-(1-pyrrolidinomethyl)phenyl]urea], in test [1] (setting [3]), the responders at 5 mg/kg is 75%.

Take `CCN(CC)CCc1cccc(NC(=O)NCc2c(-c3ccccc3)c3cc(Cl)ccc3c(=O)n2C)c1` [41 (HCl), N-[(6-Chloro-1,2-dihydro-2-methyl-1-oxo-4-phenylisoquinolin-3-yl)methyl]-N'-{3-[2-(diethylamino)ethyl]phenyl}urea]: the responders at 0.3 mg/kg in test [1] (setting [4]) is 75%. In addition, in test [1] (setting [3]), the responders at 5 mg/kg was 88%.

For the molecule `CN(C)Cc1ccc(NC(=O)NCc2c(-c3ccccc3)c3cc(Cl)ccc3c(=O)n2C)cc1` [43 (HCl), N-[(6-Chloro-1,2-dihydro-2-methyl-1-oxo-4-phenylisoquinolin-3-yl)methyl]-N'-[4-(dimethylaminomethyl)phenyl]urea], the responders at 5 mg/kg in test [1] (setting [3]) was 63%.

Take `CN(C)CCCc1cccc(NC(=O)NCc2c(-c3ccccc3)c3cc(Cl)ccc3c(=O)n2C)c1` [44 (HCl), N-[(6-Chloro-1,2-dihydro-2-methyl-1-oxo-4-phenylisoquinolin-3-yl)methyl]-N'-{3-[3-(dimethylamino)propyl]phenyl}urea]: the responders at 5 mg/kg in test [1] (setting [3]) was 63%.

As for `CN(C)CCOc1cccc(NC(=O)NCc2c(-c3ccccc3)c3cc(Cl)ccc3c(=O)n2C)c1` [45 (HCl), N-[(6-Chloro-1,2-dihydro-2-methyl-1-oxo-4-phenylisoquinolin-3-yl)methyl]-N'-{3-[2-(dimethylamino)ethoxy]phenyl}urea], in test [1] (setting [3]), the responders at 5 mg/kg is 82%.

In the case of `Cn1c(CNC(=O)NCCCn2ccnc2)c(-c2ccccc2)c2cc(Cl)ccc2c1=O` [47 (HCl), N-[(6-Chloro-1,2-dihydro-2-methyl-1-oxo-4-phenylisoquinolin-3-yl)methyl]-N'-[3-(1-imidazolyl)propyl]urea], in test [1] (setting [3]), the responders at 5 mg/kg was 75%.

As to `CNCc1cccc(NC(=O)NCc2c(-c3ccccc3)c3cc(Cl)ccc3c(=O)n2C)c1` [48 (HCl), N-[(6-Chloro-1,2-dihydro-2-methyl-1-oxo-4-phenylisoquinolin-3-yl)methyl]-N'-[3-(methylamino)methylphenyl]urea hydrochloride], in test [1] (setting [3]), the responders at 5 mg/kg is 88%.

For the molecule `CCNCc1cccc(NC(=O)NCc2c(-c3ccccc3)c3cc(Cl)ccc3c(=O)n2C)c1` [49 (HCl), N-[(6-Chloro-1,2-dihydro-2-methyl-1-oxo-4-phenylisoquinolin-3-yl)methyl]-N'-[3-(ethylaminomethyl)phenyl]urea hydrochloride], the responders at 5 mg/kg in test [1] (setting [3]) was 88%.

Turning to `Cn1c(CNC(=O)Nc2ccc3c(c2)CCC3N)c(-c2ccccc2)c2cc(Cl)ccc2c1=O` (stereo not drawn) [50 (HCl), N-(1-Aminoindan-5-yl)-N'-[(6-chloro-1,2-dihydro-2-methyl-1-oxo-4-phenylisoquinolin-3-yl)methyl]urea hydrochloride], the responders at 5 mg/kg in test [1] (setting [3]) was 75%.

In the case of `Cn1c(CNC(=O)Nc2cccc(CN)c2)c(-c2ccccc2)c2cc(Cl)ccc2c1=O` [51 (HCl), N-[3-(Aminomethyl)phenyl]-N'-[(6-chloro-1,2-dihydro-2-methyl-1-oxo-4-phenylisoquinolin-3-yl)methyl]urea hydrochloride], the responders at 5 mg/kg in test [1] (setting [3]) is 100%.

Take `CN(C)Cc1cccc(NC(=O)NCc2c(-c3ccc(F)cc3)c3ccccc3c(=O)n2C)c1` [53 (HCl), N-{[4-(4-Fluorophenyl)-1,2-dihydro-2-methyl-1-oxoisoquinolin-3-yl]methyl}-N'-[3-(dimethylaminomethyl)phenyl]urea hydrochloride]: in test [1] (setting [3]), the responders at 5 mg/kg is 75%.

Consider `CC(C)Oc1cccc(NC(=O)NCc2c(-c3ccccc3)c3ccccc3c(=O)n2C)c1` [Example 16, N-[(1,2-Dihydro-2-methyl-1-oxo-4-phenylisoquinolin-3yl)methyl]-N'-(3-isopropoxyphenyl)urea], for which the responders at 5 mg/kg in test [1] (setting [3]) is 88%.

Consider `CC(C)Oc1cccc(N(C)C(=O)N(C)Cc2c(-c3ccccc3)c3cc(Cl)ccc3c(=O)n2C)c1` [Example 24, N-[(6-Chloro-1,2-dihydro-2-methyl-1-oxo-4-phenylisoquinolin-3-yl)methyl]-N'-(3-isopropoxyphenyl)-N,N'-dimethylurea], for which, in test [1] (setting [3]), the responders at 5 mg/kg was 75%.

`CC(C)Oc1cccc(CC(=O)NCc2c(-c3ccccc3)c3cc(Cl)ccc3c(=O)n2C)c1` [Example 27, N-(6-Chloro-1,2-dihydro-2-methyl-1-oxo-4-phenylisoquinolin-3-yl)methyl-α-(3-isopropoxyphenyl)acetamide]: the responders at 5 mg/kg in test [1] (setting [3]) is 88%.

Consider `CC(C)Oc1cccc(OC(=O)NCc2c(-c3ccccc3)c3cc(Cl)ccc3c(=O)n2C)c1` [Example 29, 3-Isopropoxyphenyl N-[(6-chloro-1,2-dihydro-2-methyl-1-oxo-4-phenylisoquinolin-3-yl)methyl]carbamate], for which, in test [1] (8 h), the responders at 5 mg/kg stood at 75%.

`CC(C)Oc1cccc(CC(=O)OCc2c(-c3ccccc3)c3cc(Cl)ccc3c(=O)n2C)c1` [Example 32, (6-Chloro-1,2-dihydro-2-methyl-1-oxo-4-phenylisoquinolin-3-yl)methyl α-(3-isopropoxyphenyl)acetate]: in test [1] (setting [3]), the responders at 5 mg/kg was 63%.

These data come from patent US5527811A, “Isoquinolinyl compounds which are useful in treating cerebral vascular disorders” (Takeda Chemical Industries, Ltd., priority 1993, dated 1996).
